{
  "source": "patent US20160106747A1",
  "about": "“TREATING POSTOPERATIVE MECHANICAL STRESS WITH AN ECTOINE” (Bitop AG, priority 2008, published 2016)",
  "key": {"[1]": {"system": "rats with TNBS-induced enteritis", "assay": "Enteritis induced in rats with trinitrobenzol sulfonic acid (TNBS), oral ectoine", "assay_type": "in vivo", "description": "For the purpose of closer investigation an animal model involving rats was prepared to induce enteritis by administering 10 mg/kg of trinitrobenzol sulfonic acid in 50% ethanol using a light ether anesthesia. Lesions developed which were examined macroscopically four days later. Ectoine was administered orally in various doses (30 to 300 mg/kg) for one week before the rats were given TNBS and four days thereafter."}, "[2]": {"system": "Small intestine segments of rats", "assay": "Cold ischemic storage (18 h, 4° C.) of rat small intestine segments in POLYSOL with or without ectoine, then in vitro reperfusion", "details": "for LDH liberation: ectoine (5 mg/kg) added to POLYSOL, 18 h at 4° C.", "description": "Small intestine segments of rats were removed under standard conditions and immediately irrigated with a cold common salt solution and subsequently with a POLYSOL solution (supplied by Doorzand Medical Innovations, Amsterdam/NL). The small intestine segments removed were kept ischemically in 50 ml of nutrient solution at 4° C. for 18 hours; in half of these cases ectoine (5 mg/kg) was added to the POLYSOL solution. Following this storage time at 4° C. reperfusion of the small intestine segments took place in vitro at 37° C. using a modified KHB medium (5% Dextran 78, 0.95% KHB, 0.37 g/L CaCl2, 2 g/L glucose, 0.6 g/L dexamethasone, 70 mg/L atropine and 0.21% sodium bicarbonate). For oxygen supply purposes a mixture of 95% O2 and 5% CO2 was used. The partial pressure of the oxygen was constantly kept at more than 500 mm/hg. When reperfusion had been completed all tissue samples were deep-frozen at −80° C. in liquid nitrogen and examined to ascertain their condition, the lactate dehydrogenase (LDH) liberation and nitrite liberation as a measure of NO. Generally speaking, the formation of NOx is an indicator for (oxidative) stress to which a tissue sample is subjected."}},
  "note": "“Also recorded” adds a separate entry of the source.",
  "data": [
    {"smiles": "CC1=N[C@H](C(=O)O)CCN1", "note": "[ectoine, (4S)-2-methyl-1,4,5,6-tetrahydropyrimidine-4-carboxylic acid]", "values": [
      {"measurement": "extent of the lesions (macroscopic examination)", "setting": "[1]; TNBS 10 mg/kg in 50% ethanol, ectoine oral 30 to 300 mg/kg for one week before TNBS and four days thereafter, lesions examined four days later", "result": "capable of alleviating the extent of the lesions"},
      {"measurement": "histopathological examination of the large intestine", "setting": "[1]; TNBS enteritis", "result": "protective effect of ectoine could be confirmed"},
      {"measurement": "glutathione level in the large intestine", "setting": "[1]; TNBS enteritis, oral ectoine", "result": "caused the glutathione level in the large intestine to go down"},
      {"measurement": "myeloperoxidase activity", "setting": "[1]; TNBS enteritis, oral ectoine", "result": "prevented changes of the myeloperoxidase activity"},
      {"measurement": "level of mediators (IKAM-1, DNFα, IL-1β, IL-10, LTB4, PGE2)", "setting": "[1]; in the blood and in the tissue of the large intestine, TNBS enteritis", "result": "prevented changes of the level of various mediators"},
      {"measurement": "dose giving the maximum effect on lesions", "setting": "[1]; oral, doses of 30 to 300 mg/kg tested", "result": 100, "unit": "mg/kg"},
      {"measurement": "effect compared with reference active agent sulfasalazine", "setting": "[1]; sulfasalazine 300 mg/kg as reference, TNBS enteritis", "result": "comparable to that of sulfasalazine"},
      {"measurement": "LDH liberation", "setting": "[2]; after 15 min reperfusion", "result": "8.8+/−3.42 U/I"},
      {"measurement": "LDH liberation", "setting": "[2]; after 30 min reperfusion", "result": "25.4+/−8.2 U/I"},
      {"measurement": "NOx− formation", "setting": "[2]; ectoine-doped POLYSOL samples after reperfusion", "result": "0.325 ± 1.05", "unit": "mmol/L"},
      {"measurement": "condition of the microvilli (microscopic examination)", "setting": "[2]; tissue samples after 30-minute reperfusion, compared with samples in POLYSOL only", "result": "much better condition; also recorded: considerably improved condition of the microvilli"}
    ]}
  ]
}
